# Test results reported in US20250152556A1, “ETRASIMOD FOR USE IN TREATING S1P1 RECEPTOR-ASSOCIATED DISORDERS IN COMBINATION WITH HORMONE TREATMENT” (Arena Pharmaceuticals, Inc., priority 2022, published 2025).
# Assays:
# [1] = cited from earlier work
# [2] = design: species or system human; details: in vivo
# Experimental: A phase 1, open-label, repeat-dose, two-way, single-sequence study was conducted to evaluate the effect of Compound 1, or a pharmaceutically acceptable salt, hydrate, or solvate thereof, (“Study Drug”) on the pharmacokinetics and pharmacodynamics of a monophasic oral contraceptive (OC) in healthy premenopausal female subjects.
# The primary objective of the study was to evaluate the pharmacokinetics (PK) of a monophasic OC (30 μg ethinylestradiol [EE] and 150 μg levonorgestrel [LVG]) alone and when co-administered with repeated doses of Study Drug in healthy premenopausal female subjects.
# All subjects received monophasic OC once daily (qd) for 21 days (Days 1 to 21; reference treatment) followed by a 7-day OC dose-free period (Days 22 to 28). […]
# Blood samples for plasma PK evaluation of EE, LVG, and Study Drug were collected. The following PK parameters were determined for EE, LVG, and/or Study Drug and, if warranted, metabolites thereof. • Cmax,ss maximum plasma concentration at steady-state • Cmin,ss plasma concentration at 24-hours postdose at steady-state • Tmax,ss time to Cmax at steady-state • AUCtau,ss area under the plasma concentration-time curve (AUC) during the dosing interval (tau) at steady-state • CLSS/F Apparent plasma clearance of drug after extravascular administration at steady-state
# ovarian activity = assay: Phase 1 study: PD markers of ovarian activity (FSH, LH, estradiol, progesterone, SHBG, TVUS/Hoogland score); type: in vivo, human; details: Study Drug 2 mg qd with OC
# Text: (§1) Secondary objectives of the study were: • To assess the concentrations of follicle stimulating hormone (FSH), luteinizing hormone (LH), estradiol, and progesterone during and after dosing with the monophasic OC alone and when co-administered with Study Drug in healthy premenopausal female subjects. • To evaluate transvaginal ultrasound (TVUS) and Hoogland scores on Days 1 and 11±1 in Period 1 and Period 2 in healthy premenopausal female subjects. • To evaluate sex hormone binding globulin (SHBG) concentrations on Days 1 and 21 in Period 1 and Period 2 in healthy premenopausal female subjects. • To evaluate the steady-state PK of Study Drug when co-administered with the monophasic OC in healthy premenopausal female subjects. • To assess complete blood count (CBC) including differential, absolute lymphocyte count lowering from baseline, and platelet count upon administration of monophasic OC alone and when co-administered with Study Drug in healthy premenopausal female subjects. • To evaluate the safety and tolerability of Study Drug when co-administered with the monophasic OC in healthy premenopausal female subjects.
# On Day 1, baseline CBC, FSH, LH, estradiol, progesterone, TVUS, and SHBG were obtained, and then subjects received OC dosing. The TVUS were performed on Day −1 or Day 1. The OC PK was done on Days 21 to 22. […]
# [3] = Phase 1 study: steady-state PK of Study Drug co-administered with OC; type: in vivo, human; details: Day 49, Period 2, Study Drug 2 mg qd + OC; compared with Study Drug given alone in previous studies
# Text: as §1
# All subjects were co-administered Study Drug 2 mg qd with OC for 21 days (Days 29 to 49; test treatment), followed by a 7-day dose-free period (Days 50 to 56). On Days 49 to 50, subjects underwent assessments for PK of Study Drug and OC. […]
# [4] = Phase 1 study: safety and tolerability (AEs, 12-lead ECG, Holter, laboratory, vital signs); type: in vivo, human
# Experimental: Subjects were administered 2 mg Study Drug, specifically, the L-arginine salt of Compound 1, i.e., Compound 2, qd on Days 23 to 28. Subjects were fitted with a Holter monitor and 24-hour continuous electrocardiogram (ECG) recording was performed starting before the Study Drug dose on Day 23 of Period 1 until Day 24 of Period 1.
# All subjects were co-administered Study Drug 2 mg qd with OC for 21 days (Days 29 to 49; test treatment), followed by a 7-day dose-free period (Days 50 to 56). On Days 49 to 50, subjects underwent assessments for PK of Study Drug and OC. Further PD assessments and safety evaluations were performed as described in the schedules of assessments and procedures. Subjects were fitted with a Holter monitor and 24-hour continuous ECG recording was performed starting before the Study Drug dose on Day 49 of Period 2 until Day 50 of Period 2.
# Subject safety and tolerability were monitored during the study using standard measures, including adverse event (AE) monitoring, orthostatic vital signs, 12-lead ECGs, continuous ECG recordings (Holter), clinical laboratory evaluations, physical examinations, and concomitant medication usage.
# • Evaluations of AEs, orthostatic vital signs, 12-lead ECGs, continuous ECG recording (Holter), clinical laboratory evaluations, physical examinations, concomitant medications
# lymphocyte counts = assay: Phase 1 study: lymphocyte counts (CBC); type: in vivo, human
# Text: as §1
# Subjects were administered 2 mg Study Drug, specifically, the L-arginine salt of Compound 1, i.e., Compound 2, qd on Days 23 to 28. […]
# [5] = after the first dose (Day 23), 2 mg
# [6] = repeat dosing at steady-state (Day 49), 2 mg qd
smiles,measurement,setting,value
"O=C(O)C[C@H]1CCc2c1[nH]c1ccc(OCc3ccc(C4CCCC4)c(C(F)(F)F)c3)cc21 [Compound 1, (R)-2-(7-(4-cyclopentyl-3-(trifluoromethyl)benzyloxy)-1,2,3,4-tetrahydrocyclopenta[b]indol-3-yl)acetic acid]",endoscopic and symptomatic improvements versus placebo,"[1]; Phase 2, ulcerative colitis patients, 2 mg QD for 12 weeks",clinically meaningful and statistically significant
same,safety and tolerability in adult subjects,"[1]; approximately 281 adult subjects, various doses, Phase 1 single doses up to 5 mg, repeated up to 4 mg QD",safe and well-tolerated
same,duration of sustained beneficial effects,[1]; open-label extension study,up to 46 weeks
"C#C[C@]1(O)CC[C@H]2[C@@H]3CCC4=CC(=O)CC[C@@H]4[C@H]3CC[C@@]21CC [Levonorgestrel (LVG), levonorgestrel]","change in peak (Cmax,ss) and total (AUCtau,ss) exposure measures when OC coadministered with ETR vs OC alone",[2],minor-to-moderate increases
"N=C(N)NCCC[C@H](N)C(=O)O.O=C(O)C[C@H]1CCc2c1[nH]c1ccc(OCc3ccc(C4CCCC4)c(C(F)(F)F)c3)cc21 [Compound 2, 1:1 salt of (R)-2-(7-(4-cyclopentyl-3-(trifluoromethyl)benzyloxy)-1,2,3,4-tetrahydrocyclopenta[b]indol-3-yl)acetic acid with L-arginine]","impact of Study Drug on PD performance of the OC (FSH, LH, estradiol, progesterone, SHBG, TVUS/Hoogland score)",ovarian activity,no apparent clinically relevant impact
same,"Study Drug steady-state plasma exposure measures (Cmax,ss, Cmin,ss, AUCtau,ss)",[3],generally consistent with previous study findings
same,clinically significant abnormalities of 12-lead ECG parameters including PR interval and QT interval,[4]; Days 23 or 49,No subject had an ECG with clinically significant abnormalities
same,"HR lowering effects, continuous Holter ECG recording",[4]; [5],typically mild
same,"HR lowering effects, safety 12-lead ECG",[4]; [5],typically mild
same,safety or tolerability events of concern,"[4]; conclusion, coadministration with OC",No safety or tolerability events of concern
same,"HR lowering effects, continuous Holter ECG recording",[4]; [6],less impacted
same,"HR lowering effects, safety 12-lead ECG",[4]; [6],less impacted
same,mean lymphocyte counts relative to mean baseline (Day 23) after discontinuation,"lymphocyte counts; Day 56, 7 days after discontinuation of study treatment",94%
same,mean lymphocyte count reduction from mean baseline (Day 23),"lymphocyte counts; Period 2, Study Drug 2 mg qd + OC, Day 49",−56.7%
"C#C[C@]1(O)CC[C@H]2[C@@H]3CCc4cc(O)ccc4[C@H]3CC[C@@]21C [Ethinylestradiol (EE), ethinylestradiol]","change in peak (Cmax,ss) and total (AUCtau,ss) exposure measures when OC coadministered with ETR vs OC alone",[2],minor-to-moderate increases
